This note sets out measurements from US20170349593A1, “BTK INHIBITORS” (MERCK SHARP & DOHME CORP., priority 2014, published 2017).

Some results are limits rather than exact numbers.

Experiment [1] concerns adenosine uptake into HeLa cells. Kind of experiment: [3H]Adenosine uptake assay. It is filed as cell-based. The conditions noted are these: Homo sapiens; accumulation of [3H]adenosine into HeLa cells; concentration range 10 μM to 0.032 nM; read-out: ADU inhibition IC50. On the procedure: Compounds are also screened in an adenosine uptake functional cellular assay using the protocol described below:
Adenosine uptake activity was determined by monitoring the accumulation of tritiated adenosine into HeLa cells (ATCC catalog #CCL-2) using a PMT-based radiometric detection instrument. In this assay, the potency (IC50) of each compound was determined from a ten point (1:3 serial dilution; final compound concentration range in assay from 10 μM to 0.032 nM) titration curve using the following outlined procedure. To each well of a 96-well CytoStar-T scintillating microplate (Perkin Elmer Catalog #RPNQ0163), 25 000 HeLa cells in 100 μL of growth medium comprising: Minimum Essential Media (Life Technologies Catalog #11095-080)+10% (v/v) foetal bovine serum (FBS; Sigma Aldrich Catalog #F2442) was added. These cells were incubated overnight at 37° C. in a humidified atmosphere with 5% (v/v) CO2. After this time the growth medium was removed and replaced with 40 μL assay medium comprising: Hanks balanced salts solution (HBSS; Thermo Fisher Catalog # SH30268.01)+5% (v/v) FBS. Compound stock solutions in DMSO were diluted in assay medium to 2.5× final compound concentration maintaining a constant DMSO concentration of 0.25% (v/v). 40 μL of compound in assay medium was dispensed into individual wells of the Cytostar-T plates and the plates were incubated for 30 minutes under ambient laboratory conditions. Following this incubation, 20 μL of 500 nM [^3H] adenosine (American Radiolabeled Chemicals Inc. Catalog #ART0287) in assay medium was added and incubated for a further 60 minutes under ambient laboratory conditions. The amount of radiolabel accumulation was then determined using a Perkin Elmer Topcount NXT microplate reader. In brief, HeLa cells adhere to the bottom of the Cytostar-T plate, uptake of [^3H]adenosine into these cells brings the radiolabel into sufficient proximity to excite the scintillant in the base of the plates. These events are captured by single PMT, time-resolved coincidence counting. IC50 values were determined by 4 parameter robust fit of counts per second values vs. (Log10)) compound concentrations.

Experiment [2] deals with T1, BTK enzyme (recombinant full-length BTK, hBTK) (Homo sapiens, UniProt Q06187).
T1 construct: recombinant protein from baculovirus-transfected S 19 cells: full-length BTK, 6 HIS-tag cleaved; 6 HIS-tag (cleaved yes); made in house
The experiment can be described thus: Btk enzyme activity assay (LANCE TR-FRET). Type of experiment: biochemical. The conditions noted are these: 50 pM hBTK, 25 μM ATP, 60 minute compound and enzyme incubation, concentration range 1 μM to 0.017 nM, read-out: BTK binding IC50. A general note: In TR-FRET formats the signal depends on donor and acceptor labels being close together.

T1 sequence (Q06187 whole entry): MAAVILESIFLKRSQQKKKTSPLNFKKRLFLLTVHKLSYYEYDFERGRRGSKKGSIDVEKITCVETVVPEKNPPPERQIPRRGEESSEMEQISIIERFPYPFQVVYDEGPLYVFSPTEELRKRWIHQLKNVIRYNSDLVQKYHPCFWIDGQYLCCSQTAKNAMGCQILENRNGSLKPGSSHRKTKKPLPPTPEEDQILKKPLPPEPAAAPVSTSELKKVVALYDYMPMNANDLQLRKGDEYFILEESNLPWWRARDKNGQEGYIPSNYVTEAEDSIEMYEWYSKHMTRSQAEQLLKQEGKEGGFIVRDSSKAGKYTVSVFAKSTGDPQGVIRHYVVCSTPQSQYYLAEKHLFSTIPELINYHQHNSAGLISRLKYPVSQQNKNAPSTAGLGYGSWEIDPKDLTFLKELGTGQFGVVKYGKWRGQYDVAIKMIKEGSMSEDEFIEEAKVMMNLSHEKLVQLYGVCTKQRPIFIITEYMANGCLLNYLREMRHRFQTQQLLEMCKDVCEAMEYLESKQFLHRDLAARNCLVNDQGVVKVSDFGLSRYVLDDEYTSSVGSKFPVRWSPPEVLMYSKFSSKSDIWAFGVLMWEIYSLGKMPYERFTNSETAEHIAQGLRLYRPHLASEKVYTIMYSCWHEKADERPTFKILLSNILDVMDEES

For `CCOc1cc(C(=O)Nc2cc(C(F)(F)F)ccn2)cc(F)c1-c1nc([C@H]2CN(C(=O)[C@@H](C)O)[C@@H](C)CO2)n2c(Cl)cnc(N)c12` [Example 107, 4-(8-amino-5-chloro-3-{(2R,5S)-4-[(2R)-2-hydroxypropanoyl]-5-methylmorpholin-2-yl}imidazo[1,5-a]pyrazin-1-yl)-3-ethoxy-5-fluoro-N-[4-(trifluoromethyl)pyridin-2-yl]benzamide], the concentration for half-maximal inhibition (IC50) in experiment [1] turned out to be 1990 nM; in experiment [2], 0.479 nM.
The like results for `C[C@@H]1CO[C@@H](c2nc(-c3ccc(C(=O)Nc4cc(C(F)(F)F)ccn4)cc3F)c3c(N)nccn23)CN1C1CCOCC1` [Example 73, 4-{8-amino-3-[(2R,5R)-5-methyl-4-(tetrahydro-2H-pyran-4-yl)morpholin-2-yl]imidazo[1,5-a]pyrazin-1-yl}-3-fluoro-N-[4-(trifluoromethyl)pyridin-2-yl]benzamide] were, in that order, 122 nM and 2.67 nM.
The like results for `C[C@H](O)C(=O)N1C[C@H](c2nc(-c3ccc(C(=O)Nc4cc(C(F)(F)F)ccn4)cc3Cl)c3c(N)ncc(Cl)n23)OC[C@@H]1C` [Example 100, 4-(8-amino-5-chloro-3-{(2R,5S)-4-[(2S)-2-hydroxypropanoyl]-5-methylmorpholin-2-yl}imidazo[1,5-a]pyrazin-1-yl)-3-chloro-N-[4-(trifluoromethyl)pyridin-2-yl]benzamide] were, in that order, 663 nM and 0.65 nM.
The like results for `CCOc1cc(C(=O)Nc2cc(C(F)(F)F)n(C)n2)ccc1-c1nc([C@H]2CN(C(=O)C3CC3)[C@@H](C)CO2)n2c(Cl)cnc(N)c12` [Example 5, 4-{8-amino-5-chloro-3-[(2R,5S)-4-(cyclopropylcarbonyl)-5-methylmorpholin-2-yl]imidazo[1,5-a]pyrazin-1-yl}-3-ethoxy-N-[1-methyl-5-(trifluoromethyl)-1H-pyrazol-3-yl]benzamide] were, in that order, ≥ 10000 nM and 7.14 nM.
`CCOc1cc(C(=O)Nc2cc(C(F)(F)F)ccn2)ccc1-c1nc([C@H]2CN(C3CCS(=O)(=O)CC3)[C@@H](C)CO2)n2c(Cl)cnc(N)c12` [Example 108, 4-{8-amino-5-chloro-3-[(2R,5S)-4-(1,1-dioxidotetrahydro-2H-thiopyran-4-yl)-5-methylmorpholin-2-yl]imidazo[1,5-a]pyrazin-1-yl}-3-ethoxy-N-[4-(trifluoromethyl)pyridin-2-yl]benzamide]: the IC50 in experiment [1] worked out at 1320 nM; in experiment [2] it was 1.8 nM.
The like results for `COc1cc(C(=O)Nc2cc(C(F)(F)F)ccn2)ccc1-c1nc([C@H]2CN(C3CN(Cc4ccccc4F)C3)[C@@H](C)CO2)n2ccnc(N)c12` [Example 32, 4-(8-amino-3-{(2R,5S)-4-[1-(2-fluorobenzyl)azetidin-3-yl]-5-methylmorpholin-2-yl}imidazo[1,5-a]pyrazin-1-yl)-3-methoxy-N-[4-(trifluoromethyl)pyridin-2-yl]benzamide] were, in that order, 1070 nM and 6.41 nM.
The like results for `CCOc1cc(C(=O)Nc2cc(C(F)(F)F)ccn2)ccc1-c1nc([C@H]2CN(C(=O)C3(C#N)CC3)[C@@H](C)CO2)n2c(Cl)cnc(N)c12` [Example 103, 4-(8-amino-5-chloro-3-{(2R,5S)-4-[(1-cyanocyclopropyl)carbonyl]-5-methylmorpholin-2-yl}imidazo[1,5-a]pyrazin-1-yl)-3-ethoxy-N-[4-(trifluoromethyl)pyridin-2-yl]benzamide] were, in that order, 5580 nM and 1.92 nM.
In the same order, the values of `CCOc1cc(C(=O)Nc2cc(C(F)(F)F)ccn2)ccc1-c1nc([C@H]2CN(C(=O)[C@H](C)O)[C@@H](C)CO2)n2c(F)cnc(N)c12` [Example 106, 4-(8-amino-5-fluoro-3-{(2R,5S)-4-[(2S)-2-hydroxypropanoyl]-5-methylmorpholin-2-yl}imidazo[1,5-a]pyrazin-1-yl)-3-ethoxy-N-[4-(trifluoromethyl)pyridin-2-yl]benzamide] are 6250 nM and 4.31 nM.
Turning to `COc1cc(C(=O)Nc2cc(C(F)(F)F)ccn2)ccc1-c1nc([C@H]2CN(Cc3cnn(C)c3)[C@@H](C)CO2)n2ccnc(N)c12` [Example 54, 4-(8-amino-3-{(2R,5S)-5-methyl-4-[(1-methyl-1H-pyrazol-4-yl)methyl]morpholin-2-yl}imidazo[1,5-a]pyrazin-1-yl)-3-methoxy-N-[4-(trifluoromethyl)pyridin-2-yl]benzamide], the IC50 in experiment [1] amounted to 1650 nM; in experiment [2], 2.28 nM.
The like results for `CCOc1cc(C(=O)Nc2cc(C(F)(F)F)ccn2)ccc1-c1nc([C@H]2CN(C(=O)[C@H](C)OC)[C@@H](C)CO2)n2c(Cl)cnc(N)c12` [Example 21, 4-(8-amino-5-chloro-3-{(2R,5S)-4-[(2S)-2-methoxypropanoyl]-5-methylmorpholin-2-yl}imidazo[1,5-a]pyrazin-1-yl)-3-ethoxy-N-[4-(trifluoromethyl)pyridin-2-yl]benzamide] were, in that order, 7270 nM and 1.43 nM.
In the same order, the values of `Nc1nccn2c1c(-c1ccc(C(=O)Nc3cc(C(F)(F)F)ccn3)cc1)nc2[C@H]1C[C@H](Nc2c(NC3CC3)c(=O)c2=O)C1` [Example 114, 4-[8-amino-3-(trans-3-{[2-(cyclopropylamino)-3,4-dioxocyclobut-1-en-1-yl]amino}cyclobutyl)imidazo[1,5-a]pyrazin-1-yl]-N-[4-(trifluoromethyl)pyridin-2-yl]benzamide] are 925 nM and 0.327 nM.
In the same order, the values of `C[C@H]1CO[C@@H](c2nc(-c3ccc(C(=O)Nc4cc(C(F)(F)F)ccn4)cc3F)c3c(N)nccn23)CN1C1COC1` [Example 76, 4-{8-amino-3-[(2R,5S)-5-methyl-4-oxetan-3-ylmorpholin-2-yl]imidazo[1,5-a]pyrazin-1-yl}-3-fluoro-N-[4-(trifluoromethyl)pyridin-2-yl]benzamide] are 237 nM and 0.531 nM.
Turning to `CNc1c(N[C@H]2C[C@H](c3nc(-c4ccc(C(=O)Nc5cc(C(F)(F)F)ccn5)cc4)c4c(N)nccn43)C2)c(=O)c1=O` [Example 113, 4-[8-amino-3-(trans-3-{[2-(methylamino)-3,4-dioxocyclobut-1-en-1-yl]amino}cyclobutyl)imidazo[1,5-a]pyrazin-1-yl]-N-[4-(trifluoromethyl)pyridin-2-yl]benzamide], the values for the half-maximal inhibitory concentration (IC50) in experiment [1] and in experiment [2] were 2940 nM and 0.166 nM, respectively.
For the compound `COCCC(=O)N1CC(N2C[C@H](c3nc(-c4ccc(C(=O)Nc5cc(C(F)(F)F)ccn5)cc4OC)c4c(N)nccn34)OC[C@@H]2C)C1` [Example 28, 4-(8-amino-3-{(2R,5S)-4-[1-(3-methoxypropanoyl)azetidin-3-yl]-5-methylmorpholin-2-yl}imidazo[1,5-a]pyrazin-1-yl)-3-methoxy-N-[4-(trifluoromethyl)pyridin-2-yl]benzamide], the IC50 in experiment [1] was ≥ 10000 nM; in experiment [2], 7.61 nM.
In the same order, the values of `CCOc1cc(C(=O)Nc2cc(C(F)(F)F)n(C)n2)ccc1-c1nc([C@H]2CN(C3CCOCC3)[C@@H](C)CO2)n2ccnc(N)c12` [Example 39, 4-{8-amino-3-[(2R,5S)-5-methyl-4-(tetrahydro-2H-pyran-4-yl)morpholin-2-yl]imidazo[1,5-a]pyrazin-1-yl}-3-ethoxy-N-[1-methyl-5-(trifluoromethyl)-1H-pyrazol-3-yl]benzamide] are 3800 nM and 5.87 nM.
In the same order, the values of `C[C@H](O)C(=O)N1C[C@H](c2nc(-c3ccc(C(=O)Nc4cc(C(F)(F)F)ccn4)cc3)c3c(N)ncc(Cl)n23)OC[C@@H]1C` [Example 45, 4-(8-amino-5-chloro-3-{(2R,5S)-4-[(2S)-2-hydroxypropanoyl]-5-methylmorpholin-2-yl}imidazo[1,5-a]pyrazin-1-yl)-N-[4-(trifluoromethyl)pyridin-2-yl]benzamide] are 512 nM and 0.68 nM.
In the same order, the values of `CCOc1cc(C(=O)Nc2cc(C(F)(F)F)ccn2)ccc1-c1nc([C@@H]2CC[C@H](C)N(C(=O)[C@@H](C)O)C2)n2c(Cl)cnc(N)c12` [Example 111, 4-(8-amino-5-chloro-3-{(3R,6S)-1-[(2R)-2-hydroxypropanoyl]-6-methylpiperidin-3-yl}imidazo[1,5-a]pyrazin-1-yl)-3-ethoxy-N-[4-(trifluoromethyl)pyridin-2-yl]benzamide] are 982 nM and 0.274 nM.

As usually defined, the IC50 is the midpoint of a concentration-inhibition curve.
